Data reported in US4332794A, “6"-Deoxydibekacin, 4",6"-dideoxydibekacin and 1-N-aminoacyl derivatives thereof, and the production of these new compounds” (Zaidan Hojin Biseibutsu Kagaku Kenkyu Kai, priority 1979, dated 1982).
Values after ≈ are worked out from the molar mass of the structure shown. Read-outs that look alike come from different tables or passages of the source.

How the values were obtained:
intravenous LD50 in mice = settings: mouse, in vivo, estimated
[1] = system: Escherichia coli K-12 ML 1410; experiment: MIC, serial dilution on nutrient agar; assay type: cell-based
[2] = system: Staphylococcus aureus APO1; experiment: MIC, serial dilution on nutrient agar; assay type: cell-based
[3] = system: Escherichia coli K-12 1410 R81; experiment: MIC, serial dilution on nutrient agar; assay type: cell-based; settings: K121410R81, 18 h
[4] = system: Mycrococcus flavus FDA 16; experiment: MIC, serial dilution on nutrient agar; assay type: cell-based
[5] = system: Klebsiella pneumoniae 22 #3038; experiment: MIC, serial dilution on nutrient agar; assay type: cell-based
[6] = system: Bacillus subtilis NRRL B-558; experiment: MIC, serial dilution on nutrient agar; assay type: cell-based; settings: NRRLB558, 37° C., 18 hours
Proteus rettgeri GN466 = experiment: MIC, serial dilution on nutrient agar; assay type: cell-based; settings: Providencia rettgeri
[7] = system: Pseudomonas aeruginosa H11; experiment: MIC, serial dilution on nutrient agar; assay type: cell-based
[8] = system: Escherichia coli K-12 LA 290 R56; experiment: microbe, parasite or virus in culture; assay type: cell-based; settings: K12LA290R56, 18 h
[9] = system: Bacillus subtilis PCI 219; experiment: MIC, serial dilution on nutrient agar; assay type: cell-based; settings: PCI219, 37° C., 18 hours
[10] = system: Escherichia coli K-12 LA 290 R55; experiment: microbe, parasite or virus in culture; assay type: cell-based; settings: K12LA290R55, 18 h
Proteus rettgeri GN311 = experiment: MIC, serial dilution on nutrient agar; assay type: cell-based; settings: Providencia rettgeri
[11] = system: Pseudomonas aeruginosa B-13; experiment: MIC, serial dilution on nutrient agar; assay type: cell-based
[12] = system: kanamycin-sensitive and resistant bacteria; experiment: antibacterial activity compared to dibekacin; assay type: cell-based
Experimental: The minimum inhibitory concentrations (mcg/ml) of 6"-deoxydibekacin (abbreviated as 6"-DDKB), 4",6"-dideoxydibekacin (abbreviated as 4",6"-DDKB), 1-N-(L-4-amino-2-hydroxybutyryl)-6"-deoxydibekacin (abbreviated as AHB-6"-DDKB) and 1-N-(L-4-amino-2-hydroxybutyryl)-4",6"-dideoxydibekacin (abbreviated as AHB-4",6"-DDKB) of this invention against various microorganisms were determined according to serial dilution method on a nutrient agar medium at 37° C., the estimation being made after 18 hours incubation. For comparison purpose, the minimum inhibitory concentrations of dibekacin (abbreviated as DKB) were also determined in the same manner as stated above.

Salmonella typhi F63 = experiment: MIC, serial dilution on nutrient agar; assay type: cell-based; settings: Salmonella enterica, 18 h
oto-toxicity = settings: compounds of this invention
[13] = system: Pseudomonas aeruginosa 99; experiment: MIC, serial dilution on nutrient agar; assay type: cell-based
[14] = system: Pseudomonas aeruginosa TI-13; experiment: MIC, serial dilution on nutrient agar; assay type: cell-based
[15] = system: Salmonella enteritidis 1891; experiment: MIC, serial dilution on nutrient agar; assay type: cell-based; settings: Salmonella enterica
[16] = system: kanamycin-sensitive bacteria and various kanamycin-resistant bacteria; settings: prior art; cited from earlier work
[17] = Pseudomonas aeruginosa, 99, 18 h
[18] = nutrient agar, 37° C., 18 hours, read-out: MIC
[19] = H11, nutrient agar, 37° C., 18 hours, read-out: MIC
[20] = GN311, nutrient agar, 37° C., 18 hours, read-out: MIC
[21] = Pseudomonas aeruginosa, 99, nutrient agar, 37° C., 18 hours, read-out: MIC
[22] = TI13, nutrient agar, 37° C., 18 hours, read-out: MIC
[23] = B13, nutrient agar, 37° C., 18 hours, read-out: MIC
[24] = K12ML1410, nutrient agar, 37° C., 18 hours, read-out: MIC
[25] = GN466, nutrient agar, 37° C., 18 hours, read-out: MIC

Row | Compound | LD50 (intravenous LD50 in mice) [mg/kg] | MIC ([1]; K12ML1410, 18 h) [µg/mL] | MIC ([2]; APO1, 18 h) [µg/mL] | MIC [3] [µg/mL] | MIC ([4]; 18 h) [µg/mL] | MIC ([5]; 18 h) [µg/mL] | MIC [6] [µg/mL] | MIC (Proteus rettgeri GN466; GN466, 18 h) [µg/mL] | MIC ([7]; H11, 18 h) [µg/mL] | MIC [8] [µg/mL] | MIC [9] [µg/mL] | MIC [10] [µg/mL] | MIC (Proteus rettgeri GN311; GN311, 18 h) [µg/mL] | MIC ([11]; B13, 18 h) [µg/mL] | antibacterial activity compared to dibekacin (DKB) [12] | MIC (Salmonella typhi F63) [µg/mL] | oto-toxicity (oto-toxicity) | MIC ([14]; TI13, 18 h) [µg/mL] | MIC [13, 21] [µg/mL] | MIC ([15]; 18 h) [µg/mL] | further results
1 | C[C@@H]1C[C@H](N)[C@@H](O)[C@@H](O[C@@H]2[C@@H](O)[C@H](O[C@H]3O[C@H](CN)CC[C@H]3N)[C@@H](N)C[C@H]2N)O1 [4",6"-DDKB, 4",6"-dideoxydibekacin] | > 60 | 1.56 (≈ 3.72 µM) | 3.13 (≈ 7.46 µM) | 1.56 (≈ 3.72 µM) | 50 (≈ 119 µM) | 100 (≈ 238 µM) | < 0.2 | 1.56 (≈ 3.72 µM) | 100 (≈ 238 µM) | 50 (≈ 119 µM) | < 0.2 | 100 (≈ 238 µM) | 3.13 (≈ 7.46 µM) | > 100 | same or more active | 0.78 (≈ 1.86 µM) | low oto-toxicity | 100 (≈ 238 µM) |  |  | MIC [13, 17]: > 100 µg/mL; MIC [15, 18]: 6.25 µg/mL (≈ 14.9 µM)
2 | C[C@H]1O[C@H](O[C@@H]2[C@@H](O)[C@H](O[C@H]3O[C@H](CN)CC[C@H]3N)[C@@H](N)C[C@H]2N)[C@H](O)[C@@H](N)[C@@H]1O [6"-DDKB, 6"-deoxydibekacin] | > 60 | 3.13 (≈ 7.19 µM) | 3.13 (≈ 7.19 µM) | 1.56 (≈ 3.58 µM) |  | 100 (≈ 230 µM) | < 0.2 | 3.13 (≈ 7.19 µM) |  | 25 (≈ 57.4 µM) | < 0.2 | > 100 |  | 50 (≈ 115 µM) | same or more active | 0.39 (≈ 0.895 µM) | low oto-toxicity |  | 12.5 (≈ 28.7 µM) | 3.13 (≈ 7.19 µM) | MIC [4, 18]: 25 µg/mL (≈ 57.4 µM); MIC [7, 19]: 12.5 µg/mL (≈ 28.7 µM); MIC (Proteus rettgeri GN311; [20]): 6.25 µg/mL (≈ 14.4 µM); MIC [14, 22]: 12.5 µg/mL (≈ 28.7 µM)
3 | C[C@@H]1C[C@H](N)[C@@H](O)[C@@H](O[C@@H]2[C@@H](O)[C@H](O[C@H]3O[C@H](CN)CC[C@H]3N)[C@@H](N)C[C@H]2NC(=O)[C@@H](O)CCN)O1 [AHB-4",6"-DDKB, 1-N-(L-4-amino-2-hydroxybutyryl)-4",6"-dideoxydibekacin] | > 80 | 1.56 (≈ 3 µM) | 1.56 (≈ 3 µM) | 1.56 (≈ 3 µM) | 1.56 (≈ 3 µM) | 3.13 (≈ 6.01 µM) | < 0.2 | 3.13 (≈ 6.01 µM) | 50 (≈ 96 µM) | 1.56 (≈ 3 µM) | < 0.2 | 1.56 (≈ 3 µM) |  |  |  | 0.39 (≈ 0.749 µM) | low oto-toxicity |  | 12.5 (≈ 24 µM) | 6.25 (≈ 12 µM) | MIC (Proteus rettgeri GN311; [20]): 25 µg/mL (≈ 48 µM); MIC [11, 23]: 12.5 µg/mL (≈ 24 µM); MIC [14, 22]: 25 µg/mL (≈ 48 µM)
4 | C[C@H]1O[C@H](O[C@@H]2[C@@H](O)[C@H](O[C@H]3O[C@H](CN)CC[C@H]3N)[C@@H](N)C[C@H]2NC(=O)[C@@H](O)CCN)[C@H](O)[C@@H](N)[C@@H]1O [AHB-6"-DDKB, 1-N-(L-4-amino-2-hydroxybutyryl)-6"-deoxydibekacin] | > 80 |  | 1.56 (≈ 2.91 µM) | 1.56 (≈ 2.91 µM) | 1.56 (≈ 2.91 µM) |  | < 0.2 |  | 50 (≈ 93.2 µM) | 1.56 (≈ 2.91 µM) | < 0.2 | 3.13 (≈ 5.83 µM) | 50 (≈ 93.2 µM) |  |  | 0.39 (≈ 0.727 µM) | low oto-toxicity | 6.25 (≈ 11.6 µM) | 12.5 (≈ 23.3 µM) |  | MIC [1, 24]: 3.13 µg/mL (≈ 5.83 µM); MIC [5, 18]: 3.13 µg/mL (≈ 5.83 µM); MIC (Proteus rettgeri GN466; [25]): 12.5 µg/mL (≈ 23.3 µM); MIC [11, 23]: 25 µg/mL (≈ 46.6 µM); MIC [15, 18]: 3.13 µg/mL (≈ 5.83 µM)
5 | NC[C@@H]1CC[C@@H](N)[C@@H](O[C@H]2[C@H](O)[C@@H](O[C@H]3O[C@H](CO)[C@@H](O)[C@H](N)[C@H]3O)[C@H](N)C[C@@H]2N)O1 [DKB, 3',4'-dideoxykanamycin B, reference compound] |  |  |  | 1.56 (≈ 3.45 µM) | 100 (≈ 221 µM) | 100 (≈ 221 µM) | < 0.2 |  |  | 25 (≈ 55.4 µM) | < 0.2 | 100 (≈ 221 µM) | 6.25 (≈ 13.8 µM) | 6.25 (≈ 13.8 µM) |  | 0.78 (≈ 1.73 µM) |  | 6.25 (≈ 13.8 µM) |  | 3.13 (≈ 6.93 µM) | MIC [1, 24]: 1.56 µg/mL (≈ 3.45 µM); MIC ([2]; APO1, nutrient agar, 37° C., 18 hours, read-out: MIC): 1.56 µg/mL (≈ 3.45 µM); antibacterial activity [16]: active against the kanamycin-sensitive bacteria and also against various kanamycin-resistant bacteria; MIC (Proteus rettgeri GN466; [25]): 1.56 µg/mL (≈ 3.45 µM); MIC [7, 19]: 12.5 µg/mL (≈ 27.7 µM); MIC [13, 17]: 50 µg/mL (≈ 111 µM)
